Measurements reported in US6197944A, “DNA molecules stabilized by modifications of the 3'-terminal phosphodiester linkage” (Integrated DNA Technologies, Inc., priority 1994, dated 2001).

Columns and labels:
[1] = tested on: mouse globin mRNA (MA-15: mouse α-globin mRNA; CODMB-25: mouse β-globin mRNA); test: In vitro translation of globin mRNA in rabbit reticulocyte lysate (hybrid-arrested translation, role of RNaseH); type: biochemical; settings: for inhibition of translation of the targeted mRNA: in words; for % Inhibition Of Globin Synthesis, +poly rA/oligo dT: with poly rA/oligo dT 500 ug/ml (RNaseH inhibitor); for % Inhibition Of Globin Synthesis, +poly rA/oligo dT / % Inhibition Of Globin Synthesis, -poly rA/oligo dT: CODMB-25 4 uM, 1 hour at 30° C.; for % Inhibition Of Globin Synthesis, -poly rA/oligo dT: without poly rA/oligo dT
Protocol: (§1) For the purpose of these experiments two oligonucleotides were synthesized: 5'-GAGCACCATGGTTTC, MA-15; and 5'-[…],(SEQ ID NO:2) CODMB-25. Both were prepared on a Beckman automated DNA synthesizer using the phophoramidite method. MA-15 is complementary to a sequence within mouse α-globin mRNA spanning the initiation codon. CODMB-25 hybridizes to a sequence within the coding region of mouse β-globin mRNA. Mouse globin mRNA was isolated from reticulocytes obtained from mice rendered anemic by treatment with phenylhydrazine as described by Goosens and Kan (Methods in Enzymology (Antonini, E., Rossi-Bernadi, L., and Chiancone, E., eds.) 76, 805-817, 1981). In vitro translation reactions were carried out in the rabbit reticulocyte lysate system. The reticylocyte lysates used were purchased from ProMega Biotec, and contain RNaseH. Translation reactions were programmed with 1 ug of total mouse reticulocyte RNA. The reactions were allowed to proceed for 1 hour at 30° C. Each sample contained 45 uCi of [^35 S]methionine (Amersham) in a total volume of 25 ul. Protein synthesis was measured by incorporation of [^35 S]methionine into material precipitatable in 10% trichloracetic acid. In control reactions in the absence of oligonucleotide, synthesis of β globin accounts for 60% of the incorporated counts; α globin synthesis accounts for 40% of the radioactivity incorporated into protein. Reactions were carried out in both the presence and absence of poly rA/oligo dT (500 ug/ml).

c-myc mRNA = test: Inhibition of expression of c-myc in MOPC 315 cells (Northern blot); type: cell-based, murine; settings: either 1 or 5 micromolar, 4 hours at 37° C.
Protocol: MOPC 315 cells were maintained in RPMI 1640 culture media containing 10% fetal calf serum at 37° C. with 7% CO2. Log phase MOPC 315 cells were harvested by centrifugation (250×g for 19 minutes at 23° C.) and resuspended at a density of 5×10^6 /ml in HB101 serum-free medium (DuPont). One ml aliquots of this cell suspension were incubated in the presence of oligonucleotide for 4 hours at 37° C. and 7% CO2. Additional one ml aliquots were incubated concommitantly without oligonucleotide. Cells from each group were then collected by centrifugation. Total cellular RNA was prepared as described by Chirgwin et al., Biochemistry 18, 5294-5299 (1979), and analyzed by Northern blots as described in Example 7. The filters were probed with an oligonucleotide complementary to c-myc mRNA labeled with ^32 P using polynucleotide kinase and γ^32 P-ATP as in previous examples.

β-globin mRNA = test: In vitro translation in rabbit reticulocyte lysate, β-globin synthesis; type: biochemical, mouse; settings: in words; MA-15 complementary to 12 of 15 residues of β-globin mRNA
Protocol: as §1, with “Reactions were carried out in both the presence and absence of poly rA/oligo dT (500 ug/ml).” left out

[2] = Degradation of oligonucleotide in K562 cell extracts; type: in vitro ADME, human
Protocol: The purpose of these studies was to determine the pathways by which oligonucleotides are degraded by nucleases present within human cells. Radiolabeled derivatives of MA-15 were prepared as in Example 3. Degradation of the oligonucleotide was studied in extracts prepared from the human erythroleukemia cell line K562. The K562 cell line was first isolated by Lozzio, C. B., and Lozzio, B. B., Blood (1975) 45, 321-334, and has been studied extensively as a model for red cell differentiation. The cells were suspended in 10 mM tris buffer pH 7.4 with 5 mM MgCl2, 1 mM CaCl2, 100 mM NaCl, and 0.1% Triton® X-100 (polyethylene glycol 4-isooctylphenyl ether, and homogenized with a cold motor driven teflon pestle homogenizer for 30 seconds. Cell membranes and organelles were further disrupted by sonication by five 15 second bursts using a Biosonic sonifier set on full power. Remaining cell debris was removed from the extracts by centrifugation for 5 minutes at 12,000×g.
The radiolabeled oligonucleotide was incubated in K562 cell extracts under the same conditions as decribed in Example 3 and the degradation products analyzed by polyacrylamide gel electrophoresis. […] The half-life for cleavage of the 3'-terminal internucleotide link was 2 minutes. […] The half-life for cleavage of the 5'-terminal nucleotide unit from the chain by this mechanism was 20 minutes.
The derivative of MA-15 described in Example 5 in which the 3'-terminal internucleotide link was modified as a 2,2,2-trichloro-1,1-dimethylethyl phosphotriester was also used in this study. Extracts from K562 cells were prepared as in Example 4. The modified oligonucleotide was incubated in the cell extracts at 37° C. Aliquots were removed at various times, and the products of degradation were analyzed by polyacrylamide gel electrophoresis.

[3] = type: in vitro ADME, human; settings: 37° C., 15 minutes to 2 hours, heparinized blood
Protocol: The oligonucleotide MA-15 described in Example 1 was radioactively labeled with ^32 P at the 5'-end of the molecule using γ^32 P-adenosine triphosphate (γ ^32 P-ATP, Amersham) and T4 polynucleotide kinase (Bethesda Research Laboratories):
where the asterisk represents the radiolabel. Separately, a radiolabeled derivative was prepared in which ^32 P was introduced at the 3'most internucleotide link using α^32 P-deoxycytidine triphosphate (dCTP) and DNA polymerase I (Bethesda Research Laboratories):
The reaction catalyzed by DNA polymerase I is between 5'-GAGCACCATGGTTT and dCTP and requires the complementary DNA strand as a template. A 50 fold excess of unlabeled MA-15 was added after the reaction to insure that the labeled derivative is single stranded. These procedures are standard methods for radiolabeling DNA fragments, see for example, Maniatis, T., Fritsch, E. F., and Sambrook, J., Molecular Cloning: A Laboratory Manual, Cold Spring Harbor Laboratory, New York, pp. 114-115 and 122-126, 1982, which is incorporated herein by reference. […]
The modified oligonucleotide was labeled with ^32 P at the 5'-terminal OH group using γ^32 P-ATP and T4 polynucleotide kinase as described in Example 3. […] Aliquots were removed at various times and analyzed by polyacrylamide gel electrophoresis. […]

mouse α-globin mRNA = test: Cleavage of globin mRNA by E. coli RNaseH after hybridization with oligonucleotide (Northern blot); type: biochemical; settings: 1.1 nanomoles oligonucleotide in 22 microliters, 2 units E. coli RNaseH, 30 minutes at 37° C.
Protocol: Mouse globin mRNA was isolated from mice rendered anemic by treatment with phenylhydrazine as described in Example 1. Three oligonucleotides were compared in this study; MA-15, the derivative of MA-15 utilized in Examples 5 and 6 in which the 3'-terminal internucleotide link is modified as a trichlorodimethylethyl phosphotriester (MA-15-TCDM), and a derivative further modified at the 5'-terminal OH group with naphthylisocyanate (NPH-MA-15-TCDM). Mouse globin mRNA (2 micrograms) was added to 1.1 nanomoles of the oligonucleotide in a final volume of 22 microliters containing 10 mM tris-HCl buffer at pH 7.5, 5 mM MgCl2, 25 mM NaCl, and 1 mM dithiothreitol. The reactions were initiated by the addition of 2 units of E. coli RNaseH, and were allowed to proceed for 30 minutes at 37° C. The reactions were stopped by extraction of the samples with a 1:1 mixture of phenol and chloroform. The mRNA species remaining after digestion with RNaseH were isolated by precipitation with ethanol and analyzed on Northern blots.
The RNA samples were reacted with 1 M glyoxal in a 1:1 (volume/volume) mixture of 10 mM sodium phosphate buffer at pH 6.5 and dimethylsulfoxide for 1 hour at 50° C., and then electrophoresed on a 1.5% agarose gel. The RNAs were transferred from the gel to a Gene Screen Plus filter (DuPont-NEN) by capillary blotting according to the method described by the manufacturer. […]

Row | Substance | inhibition of translation of the targeted mRNA [1] | % Inhibition Of Globin Synthesis, +poly rA/oligo dT [1] [%] | % Inhibition Of Globin Synthesis, -poly rA/oligo dT [1] [%] | effect on c-myc mRNA levels (c-myc mRNA) | inhibition of β-globin synthesis (β-globin mRNA) | degradation by 5'- to 3'-exonucleolytic activity in K562 cell extracts ([2]; K562 cell extracts) | primary pathway of degradation in K562 cell extracts ([2]; K562 cell extracts) | rate of degradation compared with that in blood ([2]; K562 cell extracts vs blood) | half-life for cleavage of the 3'-terminal internucleotide link ([2]; K562 cell extracts, 3' to 5' exonucleolytic activity, 37° C.) [min] | half-life for cleavage of the 5'-terminal nucleotide unit from the chain ([2]; K562 cell extracts, 5'- to 3'-exonucleolytic activity, 37° C.) [min] | pathway of degradation in human blood [3] | decrease in intensity of the α-globin mRNA band (RNaseH cleavage) (mouse α-globin mRNA)
1 | 5'-TGTCCAAGTGATTCAGGCCATCGTT [CODMB-25] | very effectively inhibited translation of the targeted mRNA | 5 | 61 | – | – | – | – | – | – | – | – | –
2 | 5'-T CCCTTCATCCCGAAGTT C (antisense TCCCTTCATCCCGAAGTTC; TCDM group attached, position not given here) [anti-albumin oligonucleotide, oligonucleotide complementary to human albumin mRNA; ( ) again represents the TCDM group] | – | – | – | no effect | – | – | – | – | – | – | – | –
3 | 5'-GAGCACCATGGTTTC [MA-15] | very effectively inhibited translation of the targeted mRNA | 3 | 51 | – | inhibits β-globin synthesis to some extent | A slower 5'- to 3'-exonucleolytic activity was also observed | 3' to 5' exonucleolytic activity | much faster than that in blood | 2 | 20 | sequential exonucleolytic cleavage of the strand from the 3'-toward the 5'-end of the chain | marked decrease in the intensity of the band for α-globin mRNA
